Reference: the supplement of paper PMC10627819

Columns and labels:
Test in all cases: fitness (endpoint OD595 vs no drug) (fraction); higher = more growth
B. subtilis 168 = system: B. subtilis 168
Procedure, shortened: (§1)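 Bacterial fitness was scored as optical density at the stationary-phase transition relative to the robust mean of no-drug control wells. Scores are capped at 1. The growth data were OD595 readings every 30 min for 14 h at 37 °C, background-subtracted against the first reading, from 384-well plates inoculated at OD595 0.01 in TSB, LB Lennox or CY.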

S. aureus DSM 20231 = system: S. aureus DSM 20231
Procedure, shortened: as §1

S. pneumoniae D39V = system: S. pneumoniae D39V
Procedure, shortened: as §1
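Note: OD595 on entry to stationary phase over no-drug wells; at most 1.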

CN(C)[C@@H]1C(O)=C(C(N)=O)C(=O)[C@@]2(O)C(O)=C3C(=O)c4c(O)ccc(Cl)c4[C@@](C)(O)[C@H]3C[C@@H]12 [Chlortetracycline] + CN1C2=CC=CC=C2N=C3C1=CC=CC3=O [Pyocyanin]
fitness
Conditions | partner 0.325 µg/mL | partner 0.65 µg/mL | partner 1.25 µg/mL | partner 1.3 µg/mL | partner 2.5 µg/mL | partner 5 µg/mL
B. subtilis 168, first compound 0.0475 µg/mL | – | – | 0.837 | – | 0.825 | 0.692
B. subtilis 168, first compound 0.095 µg/mL | – | – | 0.774 | – | 0.7 | 0.597
B. subtilis 168, first compound 0.19 µg/mL | – | – | 0.594 | – | 0.529 | 0.416
S. aureus DSM 20231, first compound 0.012 µg/mL | – | – | 0.487 | – | 0.43 | 0.359
S. aureus DSM 20231, first compound 0.024 µg/mL | – | – | 0.185 | – | 0.147 | 0.121
S. aureus DSM 20231, first compound 0.048 µg/mL | – | – | 0.0813 | – | 0.0826 | 0.0871
S. pneumoniae D39V, first compound 0.375 µg/mL | 0.0228 | 0.0497 | – | 0.031 | – | –
S. pneumoniae D39V, first compound 0.75 µg/mL | 0.0553 | 0.0813 | – | 0.104 | – | –
S. pneumoniae D39V, first compound 1.5 µg/mL | 0.0507 | 0.0698 | – | 0.0588 | – | –

one replicate
Conditions | fitness
S. aureus DSM 20231, first compound 0.006 µg/mL, partner 1.25 µg/mL | 0.748
S. aureus DSM 20231, first compound 0.006 µg/mL, partner 2.5 µg/mL | 0.692
S. aureus DSM 20231, first compound 0.006 µg/mL, partner 5 µg/mL | 0.602
S. pneumoniae D39V, first compound 0.012 µg/mL, partner 0.325 µg/mL | 0.893
S. pneumoniae D39V, first compound 0.012 µg/mL, partner 0.65 µg/mL | 0.958
S. pneumoniae D39V, first compound 0.024 µg/mL, partner 0.325 µg/mL | 0.932
S. pneumoniae D39V, first compound 0.024 µg/mL, partner 0.65 µg/mL | 0.885
S. pneumoniae D39V, first compound 0.048 µg/mL, partner 0.325 µg/mL | 0.858
S. pneumoniae D39V, first compound 0.048 µg/mL, partner 0.65 µg/mL | 0.868

CN(C)[C@@H]1C(O)=C(C(N)=O)C(=O)[C@@]2(O)C(O)=C3C(=O)c4c(O)ccc(Cl)c4[C@@](C)(O)[C@H]3C[C@@H]12 [Chlortetracycline] + C[C@@H]1O[C@@H]1P(=O)(O)O [Fosfomycin]
Conditions | fitness
B. subtilis 168, first compound 0.0475 µg/mL, partner 1.562 µg/mL | 0.713
B. subtilis 168, first compound 0.0475 µg/mL, partner 3.124 µg/mL | 0.636
B. subtilis 168, first compound 0.0475 µg/mL, partner 6.248 µg/mL | 0.498
B. subtilis 168, first compound 0.095 µg/mL, partner 1.562 µg/mL | 0.629
B. subtilis 168, first compound 0.095 µg/mL, partner 3.124 µg/mL | 0.557
B. subtilis 168, first compound 0.095 µg/mL, partner 6.248 µg/mL | 0.408
B. subtilis 168, first compound 0.19 µg/mL, partner 3.124 µg/mL | 0.336
B. subtilis 168, first compound 0.19 µg/mL, partner 6.248 µg/mL | 0.19
S. aureus DSM 20231, first compound 0.012 µg/mL, partner 0.781 µg/mL | 0.309
S. aureus DSM 20231, first compound 0.012 µg/mL, partner 1.562 µg/mL | 0.145
S. aureus DSM 20231, first compound 0.012 µg/mL, partner 3.124 µg/mL | 0.0645
S. aureus DSM 20231, first compound 0.024 µg/mL, partner 0.781 µg/mL | 0.154
S. aureus DSM 20231, first compound 0.024 µg/mL, partner 1.562 µg/mL | 0.0553
S. aureus DSM 20231, first compound 0.024 µg/mL, partner 3.124 µg/mL | 0.0457
S. aureus DSM 20231, first compound 0.048 µg/mL, partner 0.781 µg/mL | 0.0506
S. aureus DSM 20231, first compound 0.048 µg/mL, partner 1.562 µg/mL | 0.0192
S. aureus DSM 20231, first compound 0.048 µg/mL, partner 3.124 µg/mL | 0.0143
S. pneumoniae D39V, first compound 0.012 µg/mL, partner 1.25 µg/mL | 0.936
S. pneumoniae D39V, first compound 0.012 µg/mL, partner 2.5 µg/mL | 0.881
S. pneumoniae D39V, first compound 0.012 µg/mL, partner 5 µg/mL | 0.777
S. pneumoniae D39V, first compound 0.024 µg/mL, partner 1.25 µg/mL | 0.629
S. pneumoniae D39V, first compound 0.024 µg/mL, partner 2.5 µg/mL | 0.625
S. pneumoniae D39V, first compound 0.024 µg/mL, partner 5 µg/mL | 0.628
S. pneumoniae D39V, first compound 0.048 µg/mL, partner 1.25 µg/mL | 0.303
S. pneumoniae D39V, first compound 0.048 µg/mL, partner 2.5 µg/mL | 0.31
S. pneumoniae D39V, first compound 0.048 µg/mL, partner 5 µg/mL | 0.319
S. pneumoniae D39V, first compound 0.375 µg/mL, partner 1.25 µg/mL | 0.045
S. pneumoniae D39V, first compound 0.375 µg/mL, partner 2.5 µg/mL | 0.0463
S. pneumoniae D39V, first compound 0.375 µg/mL, partner 5 µg/mL | 0.0538
S. pneumoniae D39V, first compound 0.75 µg/mL, partner 1.25 µg/mL | 0.0544
S. pneumoniae D39V, first compound 0.75 µg/mL, partner 2.5 µg/mL | 0.0368
S. pneumoniae D39V, first compound 0.75 µg/mL, partner 5 µg/mL | 0.0501
S. pneumoniae D39V, first compound 1.5 µg/mL, partner 1.25 µg/mL | 0.0742
S. pneumoniae D39V, first compound 1.5 µg/mL, partner 2.5 µg/mL | 0.0712
S. pneumoniae D39V, first compound 1.5 µg/mL, partner 5 µg/mL | 0.0865

S. aureus DSM 20231, first compound 0.006 µg/mL, one replicate
Conditions | fitness
partner 0.781 µg/mL | 0.609
partner 1.562 µg/mL | 0.47
partner 3.124 µg/mL | 0.205
